The results in this text go back to US20230322815A1, “NOVEL COMPOUNDS AND THERAPEUTIC USES THEREOF” (University of Huddersfield, priority 2020, published 2023).

Test [1] can be described thus: Phosphatase activity: hydrolysis of 4-nitrophenyl phosphate. The settings on record: UV-Vis spectroscopy, after 24 hrs. The text has this:
Only [L2Zn3(PO4)]^3+ was observed, coupled with a rapid yellowing of the solution due to the formation of 4-nitrophenolate.
The rate of substrate hydrolysis is also dependent upon the metal used in the self-assembly process.

Test [2] has as its system panel of human cancer (HT-29, DLD-1, HCT116 p53^+/+ and p53^−/−, PSN1, MiaPaCa2, BxPC3, A549, H460, GBM1) and non-cancer cell lines (ARPE-19, MCF10A, NP1). Nature of the test: Chemosensitivity of a panel of human cancer and non-cancer cell lines (MTT, 96 h). The format is cell-based. The settings on record: cancer versus non-cancer cells. The procedure: FIG. 7. Chemosensitivity response of a panel of human cancer and non-cancer cell lines to 96 h continuous exposure to self-assembling test compounds. a, The potency of compounds tested against cancer (HT-29, DLD-1, HCT116 p53^+/+ and […], PSN1, MiaPaCa2, BxPC3, A549, H460 and GBM1) and non-cancer cells (ARPE-19, MCF10A and NP1). Each value represents the mean IC50±standard deviation from a minimum of three independent experiments. b,c, The selectivity index (SI) for [L2Cu3]^6+ (b) and [L2Zn3]^6+ (c) for the indicated cancer cell lines; SI is defined as the mean IC50 against the particular non-cancer cell line model divided by the mean IC50 against the particular cancer cell line. […] As the SI value is calculated using the mean IC50 values, experimental error is not included in these figures. d,e, IC50 values for the clinically approved platinates (cisplatin, oxaliplatin and carboplatin) and [L2Mn3]^6+ and the corresponding SI results.
All cell lines used were maintained at low passage in antibiotic-free media and were obtained from ATCC (LGC Standards, Middlesex, UK) unless otherwise stated (Methods). HT29, DLD-1, HCT116 p53^+/+ and HCT116 p53^−/− are all colorectal adenocarcinoma cell lines derived from different individuals and harbor different combinations of oncogenic lesions (except for the HCT116 isogenic cancer cell clones that are genetically identical except for p53 status). PSN-1, BxPC-3 and MiaPaCa2 are pancreatic carcinoma cell lines and A549 and H460 are lung carcinoma cell lines. HT29, DLD-1, PSN-1, BxPC-3, A549 and H460 cell lines were cultured in RPMI-1640 growth media (Sigma) containing 2 mM L-glutamine, 1 mM sodium pyruvate and 10% fetal bovine serum (FBS). HCT116 (p53^+/+ and p53^−/−) and MiaPaCa2 cell lines were cultured in Dulbecco's Modified Eagle's Medium (Sigma), 2 mM L-glutamine and 10% FBS. The ARPE-19 retinal epithelial non-cancer cell line (Dunn et al., 1996) was cultured in DMEM/F12 media (Gibco), 2 mM L-glutamine, 1 mM sodium pyruvate and 10% FBS. The MCF10A non-cancerous human breast epithelial cell line was cultured in Minimal Essential Media Eagle (Sigma), 2 mM L-glutamine, 1 mM sodium pyruvate, 10% FBS and 1×non-essential amino acids (NEAA). NP1 and GBM1 cells were cultured on plasticware coated with poly-L-ornithine (5 μg/ml) and laminin (2.4 μg/ml) (Polson et al., 2018; Da Silva et al., 2019). […]
[L2M3]^6+ and all the other self-assembling complexes were freshly formed by adding DMSO to individual components mixing together by pipetting. […] Media and MTT were removed and formazan crystals were dissolved in 150 μl of DMSO and the absorbance of the resulting solution determined at 540 nm. […]

A further test has as its system ARPE19 non-cancer cells. Description: Cellular ATP levels. The format is cell-based, human. The settings on record: 100 μM, 20 h. The procedure: FIG. 20. The effects of [L2Cu3]^6+, [L2Zn3]^6+ and [L2Mn3]^6+ on cellular ATP levels in the ARPE19 non-cancer and HCT116 p53^+/+ cancer cells. The effects of 20 h treatment with the indicated concentrations of [L2Cu3]^6+, [L2Zn3]^6+, or [L2Mn3]^6+ on total cellular levels of ATP compared to levels in vehicle control-treated ARPE19 or HCT116^+/+ cells. n=3 biological repeats, students t-test (p values).
Cellular ATP studies: The effects of 20 h treatment with a range of different concentrations of [L2Cu3]^6+, [L2Zn3]^6+ and [L2Mn3]^6+ on total cellular ATP levels in HCT116 p53^+/+ and ARPE19 cells are presented in FIG. 20. Differential effects are observed depending on the metal in the complex, with [L2Mn3]^6+ having the most profound effects on both the HCT116 p53^+/+ cancer and ARPE19 non-cancer cells. 6.25 μM [L2Mn3]^6+ treatment for 20 h reduced ATP levels in the HCT116 p53^+/+ cancer cells to <50% with ATP levels declining less in the ARPE19 non-cancer cells but reaching ˜40% with 100 μM [L2Mn3]^6+ treatment. […] Effects of [L2Cu3]^6+ on ATP levels was much less, with ATP levels in the HCT116 cells reduced to <50% only at the highest concentration of 100 μM.

Test [3] deals with HCT116 p53^−/− cancer cells. Nature of the test: Autophagy (CYTO-ID staining, confocal). Conditions: 3.125 μM, 40 h. The class given is cell-based, human. The protocol: FIG. 17. The effects of [L2Cu3]^6+, [L2Zn3]^6+ and [L2Mn3]^6+ on cellular vacuole formation and autophagy in the HCT116 p53^−/− cancer cells. Representative confocal images are shown of HCT116 p53^−/− cancer cells following 40 h treatment with vehicle control or 3.125 μM [L2Cu3]^6+, [L2Zn3]^6+, or [L2Mn3]^6+.
(§1) Autophagy studies: The effects of 3.125 μM [L2Cu3]^6+, [L2Zn3]^6+ and [L2Mn3]^6+ treatments (40 h) on the induction of cellular vacuoles and autophagy in the HCT116 p53^−/−, HCT116 p53^+/+ and ARPE19 cells are presented in FIGS. 17-19 with representative cell images shown. […] In the ARPE19 cells, levels of autophagy were low with all treatments and similar to basal levels in control-treated cells (FIG. 19).

Test [4] relates to HCT116 p53^+/+ cancer cells. Description: Autophagy (CYTO-ID staining, confocal). The format is cell-based, human. Conditions: 3.125 μM, 40 h. The procedure:
FIG. 18. The effects of [L2Cu3]^6+, [L2Zn3]^6+ and [L2Mn3]^6+ on cellular vacuole formation and autophagy in the HCT116 p53^+/+ cancer cells. Representative confocal images are shown of HCT116 p53^+/+ cancer cells following 40 h treatment with vehicle control or 3.125 μM [L2Cu3]^6+, [L2Zn3]^6+, or [L2Mn3]^6+.
as §1

For `[Mn+2].[Mn+2].[Mn+2].c1ccc(-c2csc(NCCN(CCNc3nc(-c4ccccn4)cs3)CCNc3nc(-c4ccccn4)cs3)n2)nc1.c1ccc(-c2csc(NCCN(CCNc3nc(-c4ccccn4)cs3)CCNc3nc(-c4ccccn4)cs3)n2)nc1` [[L2Mn3]^6+], in test [1], the “phosphate hydrolysed compared with the Zn^2+ species” value is “three times more phosphate”. In test [2], the “preferential selectivity towards cancer cells” value is roughly 2 fold. Further, the “ATP levels compared to vehicle control” value with ARPE19 non-cancer cells is roughly 40%. Further, the induction of autophagy result is “most pronounced” in test [3] and “evident” in test [4].
